Assay results from US12570612B2, “Substituted nitrogen heterocyclic compound and anesthetic effect thereof” (priority 2019, dated 2026).
Several values for one entry are separate records, joined by “and”; a condition that tells them apart may be missing. Identical values can stand only once. Entries after “also recorded” stand apart in the source; their conditions may differ. Like-named read-outs stand apart in the source and are kept apart here.

Tests used:
Sprague-Dawley rats [1] = experiment: Pharmacological characteristics at equivalent doses (2ED50), Group A compounds; assay type: in vivo; design: Sedation duration: unit not given here; details: 2ED50, tail vein; for Types and incidence of adverse reactions: (animals affected/animals)
Sprague-Dawley rats [2] = experiment: animal or person; details: for Approximate therapeutic index / Minimal lethal dose: rats
Procedure: (§1) Adult male Sprague-Dawley rats (250-300 g) were selected for the experiment. […] The anesthesia effects of the compounds were assessed in rats using a LORR assay and a period >30 s was considered as an indicator of general anesthesia.

Sprague-Dawley rats [3] = details: for Recovery time after stopping infusion: LORR maintained for 1 hour; for Recovery time after stopping infusion / Onset time: 2 times the MIR; for Onset time / Types and incidence of adverse reactions: continuous infusion; for Types and incidence of adverse reactions: (animals affected/animals)
Procedure: Adult male Sprague-Dawley rats with body weight ranging from 250 to 300 gm were selected for continuous infusion test. […] Time to recovery of righting reflex from stopping infusion, and time to fully awake from stopping infusion were recorded.

H295R cell line [4] = experiment: Adrenocortical function in vitro test: secretion of cortisol and corticosterone, Group A compounds; assay type: cell-based; details: H295 cells; for EC50: 0.1-10000 nM, HPLC-MS/MS
Sprague-Dawley rats [5] = experiment: animal or person; details: for ED50: LORR in rats, tail vein, brackets = 95% confidence limit; for Approximate therapeutic index / Minimal lethal dose: rats
Procedure: as §1

Sprague-Dawley rats [6] = experiment: Continuous infusion at 2 times the MIR for 1 hour, Group B compounds; assay type: in vivo; details: for Recovery time after stopping infusion: after 1 hour continuous infusion at 2 times the MIR; for Recovery time after stopping infusion / Onset time: rats; for Onset time: continuous tail vein infusion at 2 times the MIR, emulsion
H295R cell line [7] = experiment: Adrenocortical function in vitro test: secretion of cortisol and corticosterone, Group B compounds; assay type: cell-based; details: H295R cells; for EC50: 0.1-10000 nM, HPLC-MS/MS
[8] = Homo sapiens, read-out: EC50 (Corticosterone)
[9] = Homo sapiens, read-out: EC50 (Cortisol)
[10] = LORR in rats, tail vein, brackets = 95% confidence limit
[11] = read-out: EC50 (Corticosterone)
[12] = continuous infusion 2 x MIR 1 hour, rats affected/rats
[13] = Homo sapiens, NCI-H295R, read-out: EC50 (Corticosterone)
[14] = Homo sapiens, NCI-H295R, read-out: EC50 (Cortisol)

Compound	Onset time (Sprague-Dawley rats [1]) [min]	Righting reflex duration (Sprague-Dawley rats [1]) [min]	Types and incidence of adverse reactions (Sprague-Dawley rats [1])	ED50 (Sprague-Dawley rats [2]; Rattus norvegicus) [mg/kg]	Approximate therapeutic index (Sprague-Dawley rats [2])	Minimal lethal dose (Sprague-Dawley rats [2]) [mg/kg]	Recovery time after stopping infusion (Sprague-Dawley rats [3]) [min]	Onset time (Sprague-Dawley rats [3]) [min]	Types and incidence of adverse reactions (Sprague-Dawley rats [3])	Corticosterone as an indicator to determine the presence of inhibition (H295R cell line [4])	Cortisol as an indicator to determine the presence of inhibition (H295R cell line [4])	EC50 (H295R cell line [4]; [8]) [nM]	EC50 (H295R cell line [4]; [9]) [nM]	Approximate therapeutic index (Sprague-Dawley rats [5])	Minimal lethal dose (Sprague-Dawley rats [5]) [mg/kg]	Recovery time after stopping infusion (Sprague-Dawley rats [6]) [min]	Types and incidence of adverse reactions: Tremor (Sprague-Dawley rats [6]; [12])	Onset time (Sprague-Dawley rats [6]) [min]	Corticosterone as an indicator to determine the presence of inhibition (H295R cell line [7])	Cortisol as an indicator to determine the presence of inhibition (H295R cell line [7])	other results
C=C=CC1(OC(=O)c2cc(F)nn2[C@H](C)c2ccccc2)COC1 [Compound A52]	0.50 ± 0.08	2.01 ± 1.00	Red and urine(8/8), Euphoria(3/8), and broken-winded(1/8)	0.5 to 1	>16	>11	13 to 18	5 to 6	Tongue stretching(4/6),; also recorded: Tremor(4/6)	0	0	> 1000	> 1000	–	–	–	–	–	–	–	–
COC1CC(OC(=O)c2c(F)cnn2C(C)c2ccccc2)C1 (stereo not drawn) [Compound A76]	0.36 ± 0.12	2.29 ± 0.56	Red urine(8/8),; also recorded: Tremor(2/8),; also recorded: Euphoria(1/8)	–	>10	>2	14 to 16	3 to 4	Tremor(1/6), Tongue; also recorded: stretching(2/6)	0	0	–	–	–	–	–	–	–	–	–	Sedation duration (Sprague-Dawley rats [1]): 9.08 ± 2.16; ED50 (Sprague-Dawley rats [2]; [10]): A (A indicates that the measured ED50 is in the range of 0.04-0.50 mg/kg (including 0.04 and 0.50 mg/kg)); EC50 (H295R cell line [4]; [11]): > 1000 nM; EC50 (H295R cell line [4]; read-out: EC50 (Cortisol)): > 1000 nM
C=C=CC1(OC(=O)c2cnnn2[C@H](C)c2ccccc2)COC1 [Compound B3]	–	–	–	–	–	–	–	–	–	–	–	–	–	>32	>6	15 to 16	Tremor(4/6), Tongue	3 to 4	0	0	ED50 (Sprague-Dawley rats [5]; Rattus norvegicus): 0.04 to 0.5 mg/kg; Types and incidence of adverse reactions: Tongue stretching (Sprague-Dawley rats [6]; [12]): stretching(3/6); EC50 (H295R cell line [7]; [13]): > 1000 nM; EC50 (H295R cell line [7]; [14]): > 1000 nM
C[C@H](c1ccccc1)n1nccc1C(=O)OC1(C)COC1 [Compound A30]	0.3 ± 0.22	2.6 ± 0.83	Red and urine(8/8), Euphoria(3/8), and Tremor(1/8)	1 to 2	>6	>7	8 to 14	3 to 4	Tremor(2/6)	0	0	> 1000	> 1000	–	–	–	–	–	–	–	–
C[C@H](c1ccccc1)n1nccc1C(=O)OC1CCC1 [Compound A4]	0.52 ± 0.21	1.39 ± 0.66	Red urine(6/6),; also recorded: Euphoria(5/6), Hindlimb; also recorded: rigidity(1/6)	1 to 2	>11	>15	14 to 16	4 to 5	Tremor(3/6), Tongue; also recorded: stretching(4/6)	0	0	> 1000	> 1000	–	–	–	–	–	–	–	–
CC(=O)C1=C(OC(=O)c2c(F)cnn2[C@H](C)c2ccccc2)CCC1 [Compound A90]	0.51 ± 0.07	5.21 ± 1.45	Red and urine(8/8), Convulsions(2/ and 8), Nod(1/8)	1 to 2	>5	>10	2 to 15	5 to 6	Tremor(3/6)	0	0	> 1000	> 1000	–	–	–	–	–	–	–	–
CC(=O)C1=C(OC(=O)c2c(F)nnn2[C@H](C)c2ccccc2)CCCC1 [Compound B47]	–	–	–	–	–	–	–	–	–	–	–	–	–	>9	>13	7 to 15	Tremor(4/6),	3 to 4	0	0	ED50 (Sprague-Dawley rats [5]): C (C indicates that the measured ED50 is in the range of 1.00-2.00 mg/kg (excluding 1.00 mg/kg, including 2.00 mg/kg)); Types and incidence of adverse reactions: Forelimbrigidity (Sprague-Dawley rats [6]; [12]): Forelimbrigidity(1/6); EC50 (H295R cell line [7]; [11]): > 100 nM; EC50 (H295R cell line [7]; read-out: EC50 (Cortisol)): > 100 nM
C=C=CC(C)(C)OC(=O)c1ccnn1[C@H](C)c1ccccc1 [Compound A14]	0.78 ± 0.22	1.20 ± 0.72	Red urine(5/5), Four limbs; also recorded: Tremor(1/5)	1 to 2	>8	>11	10 to 14	6 to 7	Tremor(1/6),	0	0	> 1000	> 1000	–	–	–	–	–	–	–	–
COC(=O)C1=C(OC(=O)c2ccnn2[C@H](C)c2ccccc2)CCC1 [Compound A20]	0.67 ± 0.14	1.15 ± 0.66	Red urine(8/8), Hindlimb; also recorded: rigidity(3/8), General; also recorded: Tremor(1/8)	–	>10	>12	12 to 15	5 to 6	Tremor(5/6)	0	0	–	–	–	–	–	–	–	–	–	Sedation duration (Sprague-Dawley rats [1]): 7.05 ± 3.95; ED50 (Sprague-Dawley rats [2]; [10]): C (C indicates that the measured ED50 is in the range of 1.00-2.00 mg/kg (excluding 1.00 mg/kg, including 2.00 mg/kg)); EC50 (H295R cell line [4]; [11]): > 100 nM; EC50 (H295R cell line [4]; read-out: EC50 (Cortisol)): > 100 nM
C[C@H](c1ccccc1)n1nncc1C(=O)OC1CCC1 [Compound B6]	–	–	–	–	–	–	–	–	–	–	–	–	–	>71	>10	14 to 16	Tremor(2/6), Tongue	4 to 6	0	0	ED50 (Sprague-Dawley rats [5]): A (A indicates that the measured ED50 is in the range of 0.04-0.50 mg/kg (including 0.04 and 0.50 mg/kg)); Types and incidence of adverse reactions: Tongue stretching (Sprague-Dawley rats [6]; [12]): stretching(2/6); EC50 (H295R cell line [7]; [11]): > 100 nM; EC50 (H295R cell line [7]; read-out: EC50 (Cortisol)): > 100 nM
C[C@H](c1ccccc1)n1nnc(Cl)c1C(=O)SC1CCC1 [Compound B80]	–	–	–	–	–	–	–	–	–	–	–	–	–	>3	>16	12 to 16	Tremor(5/6)	3 to 5	0	0	ED50 (Sprague-Dawley rats [5]): D (D indicates that the measured ED50 is in the range of 2.00-10.00 mg/kg (excluding 2.00 mg/kg, including 10.00 mg/kg)); EC50 (H295R cell line [7]; [11]): > 1000 nM; EC50 (H295R cell line [7]; read-out: EC50 (Cortisol)): > 1000 nM
C[C@H](c1ccccc1)n1nncc1C(=O)OC1(C)COC1 [Compound B14]	–	–	–	–	–	–	–	–	–	–	–	–	–	>5	>7	–	Tremor(3/6)	5 to 6	0	0	ED50 (Sprague-Dawley rats [5]; Rattus norvegicus): 1 to 2 mg/kg; EC50 (H295R cell line [7]; [13]): > 1000 nM; EC50 (H295R cell line [7]; [14]): > 1000 nM
CCOC(=O)c1c(Br)nnn1[C@H](C)c1ccccc1 [Compound B118]	–	–	–	–	–	–	–	–	–	–	–	–	–	>12	>17	13 to 15	Tremor(4/6), Tongue	6 to 7	0	0	ED50 (Sprague-Dawley rats [5]): C (C indicates that the measured ED50 is in the range of 1.00-2.00 mg/kg (excluding 1.00 mg/kg, including 2.00 mg/kg)); Types and incidence of adverse reactions: Tongue stretching (Sprague-Dawley rats [6]; [12]): stretching(4/6); EC50 (H295R cell line [7]; [11]): > 1000 nM; EC50 (H295R cell line [7]; read-out: EC50 (Cortisol)): > 1000 nM
